Two compounds from PMC9851200, “Multiparameter phenotypic screening for endogenous TFEB and TFE3 translocation identifies novel chemical series modulating lysosome function” (Autophagy, 2022) can be followed below.

Holding throughout (assay type): binding
In assay [1] the target is T1, kinases (KINOMEscan panel) (Homo sapiens, UniProt Q96PN8).
T1 sequence (Q96PN8 1-268): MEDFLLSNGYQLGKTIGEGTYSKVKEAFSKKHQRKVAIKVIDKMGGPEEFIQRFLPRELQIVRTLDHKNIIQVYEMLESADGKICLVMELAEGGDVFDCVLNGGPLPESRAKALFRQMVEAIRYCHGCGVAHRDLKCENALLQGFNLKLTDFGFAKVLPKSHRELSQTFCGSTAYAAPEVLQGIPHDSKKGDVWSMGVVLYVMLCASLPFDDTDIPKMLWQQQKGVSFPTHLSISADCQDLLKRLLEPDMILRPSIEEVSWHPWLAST
Conditions: kinase TSSK3; NEW KINOMEscan.

For assay [2], the target named is T2, kinases (KINOMEscan panel) (Homo sapiens, UniProt P54762).
T2 sequence (P54762 18-984): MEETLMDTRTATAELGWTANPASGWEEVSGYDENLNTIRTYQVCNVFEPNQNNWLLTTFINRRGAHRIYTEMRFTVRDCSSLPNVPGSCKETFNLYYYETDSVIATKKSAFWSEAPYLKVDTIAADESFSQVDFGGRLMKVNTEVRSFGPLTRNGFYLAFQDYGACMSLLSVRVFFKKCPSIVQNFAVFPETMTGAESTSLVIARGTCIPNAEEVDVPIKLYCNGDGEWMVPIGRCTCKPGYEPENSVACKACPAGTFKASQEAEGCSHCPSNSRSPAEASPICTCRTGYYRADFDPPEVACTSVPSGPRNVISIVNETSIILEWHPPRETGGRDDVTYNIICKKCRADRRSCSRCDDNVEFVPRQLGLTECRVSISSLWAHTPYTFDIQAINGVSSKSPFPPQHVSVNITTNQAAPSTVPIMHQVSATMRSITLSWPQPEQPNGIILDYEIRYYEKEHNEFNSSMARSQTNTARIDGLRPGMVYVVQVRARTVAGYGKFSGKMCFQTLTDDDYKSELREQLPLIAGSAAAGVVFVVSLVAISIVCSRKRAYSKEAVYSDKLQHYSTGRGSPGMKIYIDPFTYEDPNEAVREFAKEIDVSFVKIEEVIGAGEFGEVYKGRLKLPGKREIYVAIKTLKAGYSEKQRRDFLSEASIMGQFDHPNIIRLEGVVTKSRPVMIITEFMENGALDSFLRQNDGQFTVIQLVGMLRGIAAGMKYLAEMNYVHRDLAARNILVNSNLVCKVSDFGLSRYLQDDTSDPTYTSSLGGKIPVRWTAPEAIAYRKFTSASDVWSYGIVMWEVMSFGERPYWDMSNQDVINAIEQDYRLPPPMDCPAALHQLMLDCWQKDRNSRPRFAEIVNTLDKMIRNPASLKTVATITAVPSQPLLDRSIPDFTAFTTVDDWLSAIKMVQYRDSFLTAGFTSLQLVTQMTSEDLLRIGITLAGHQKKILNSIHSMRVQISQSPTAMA
Particulars: kinase EPHB1; NEW KINOMEscan.

Assay [3] has as its target kinases (KINOMEscan panel) (Homo sapiens, UniProt P29376). Conditions: LTK; NEW KINOMEscan.
The target in assay [4] is T3, kinases (KINOMEscan panel) (Homo sapiens, UniProt O43318).
T3 sequence (O43318 1-606): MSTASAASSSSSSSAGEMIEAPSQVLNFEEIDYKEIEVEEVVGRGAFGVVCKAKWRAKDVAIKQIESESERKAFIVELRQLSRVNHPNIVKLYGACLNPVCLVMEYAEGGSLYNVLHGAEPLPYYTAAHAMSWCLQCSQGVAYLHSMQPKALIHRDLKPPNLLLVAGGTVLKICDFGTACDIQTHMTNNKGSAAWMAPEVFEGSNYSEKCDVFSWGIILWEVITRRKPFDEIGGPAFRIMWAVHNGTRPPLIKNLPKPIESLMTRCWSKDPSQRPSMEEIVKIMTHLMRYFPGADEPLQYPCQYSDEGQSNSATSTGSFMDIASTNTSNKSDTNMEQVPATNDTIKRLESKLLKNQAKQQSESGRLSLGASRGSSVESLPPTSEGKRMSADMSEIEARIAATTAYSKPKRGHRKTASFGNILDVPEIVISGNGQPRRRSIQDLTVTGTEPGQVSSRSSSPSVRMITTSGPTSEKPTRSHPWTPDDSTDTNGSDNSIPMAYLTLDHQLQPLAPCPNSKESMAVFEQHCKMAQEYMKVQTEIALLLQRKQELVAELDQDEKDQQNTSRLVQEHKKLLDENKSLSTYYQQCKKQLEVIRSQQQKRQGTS
Particulars: NEW KINOMEscan.

Assay [5] has as its target T4, kinases (KINOMEscan panel) (Homo sapiens, UniProt Q8IYT8).
T4 sequence (Q8IYT8 1-1036): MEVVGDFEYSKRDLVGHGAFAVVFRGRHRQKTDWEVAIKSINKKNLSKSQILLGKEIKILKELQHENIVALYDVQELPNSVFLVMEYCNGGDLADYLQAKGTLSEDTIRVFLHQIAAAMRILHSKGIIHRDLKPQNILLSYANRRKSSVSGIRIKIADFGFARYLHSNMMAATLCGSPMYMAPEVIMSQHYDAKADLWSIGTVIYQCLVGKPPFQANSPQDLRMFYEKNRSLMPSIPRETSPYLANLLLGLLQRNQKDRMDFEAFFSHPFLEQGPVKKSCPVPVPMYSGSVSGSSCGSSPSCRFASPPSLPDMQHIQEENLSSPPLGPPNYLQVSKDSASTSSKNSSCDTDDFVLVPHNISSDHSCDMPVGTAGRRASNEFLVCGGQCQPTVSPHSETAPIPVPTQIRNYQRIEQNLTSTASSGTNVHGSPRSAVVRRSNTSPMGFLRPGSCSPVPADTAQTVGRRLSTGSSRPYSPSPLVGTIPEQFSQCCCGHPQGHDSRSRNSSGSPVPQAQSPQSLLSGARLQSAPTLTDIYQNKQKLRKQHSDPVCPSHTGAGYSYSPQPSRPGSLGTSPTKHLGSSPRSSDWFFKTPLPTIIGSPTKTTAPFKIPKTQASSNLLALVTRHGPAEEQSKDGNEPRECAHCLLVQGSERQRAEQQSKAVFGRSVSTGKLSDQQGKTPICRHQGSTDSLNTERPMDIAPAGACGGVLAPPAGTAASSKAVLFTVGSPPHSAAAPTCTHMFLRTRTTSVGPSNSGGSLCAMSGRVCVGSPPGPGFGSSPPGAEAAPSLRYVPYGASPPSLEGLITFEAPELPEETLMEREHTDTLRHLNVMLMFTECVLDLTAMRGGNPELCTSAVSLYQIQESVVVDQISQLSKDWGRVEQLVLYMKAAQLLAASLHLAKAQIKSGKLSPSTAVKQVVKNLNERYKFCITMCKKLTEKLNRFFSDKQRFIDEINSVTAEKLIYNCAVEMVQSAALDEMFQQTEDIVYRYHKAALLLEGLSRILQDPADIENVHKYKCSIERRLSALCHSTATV
Particulars: NEW KINOMEscan.

Sequence of kinases (KINOMEscan panel) (Homo sapiens, UniProt P29376) (P29376 17-864): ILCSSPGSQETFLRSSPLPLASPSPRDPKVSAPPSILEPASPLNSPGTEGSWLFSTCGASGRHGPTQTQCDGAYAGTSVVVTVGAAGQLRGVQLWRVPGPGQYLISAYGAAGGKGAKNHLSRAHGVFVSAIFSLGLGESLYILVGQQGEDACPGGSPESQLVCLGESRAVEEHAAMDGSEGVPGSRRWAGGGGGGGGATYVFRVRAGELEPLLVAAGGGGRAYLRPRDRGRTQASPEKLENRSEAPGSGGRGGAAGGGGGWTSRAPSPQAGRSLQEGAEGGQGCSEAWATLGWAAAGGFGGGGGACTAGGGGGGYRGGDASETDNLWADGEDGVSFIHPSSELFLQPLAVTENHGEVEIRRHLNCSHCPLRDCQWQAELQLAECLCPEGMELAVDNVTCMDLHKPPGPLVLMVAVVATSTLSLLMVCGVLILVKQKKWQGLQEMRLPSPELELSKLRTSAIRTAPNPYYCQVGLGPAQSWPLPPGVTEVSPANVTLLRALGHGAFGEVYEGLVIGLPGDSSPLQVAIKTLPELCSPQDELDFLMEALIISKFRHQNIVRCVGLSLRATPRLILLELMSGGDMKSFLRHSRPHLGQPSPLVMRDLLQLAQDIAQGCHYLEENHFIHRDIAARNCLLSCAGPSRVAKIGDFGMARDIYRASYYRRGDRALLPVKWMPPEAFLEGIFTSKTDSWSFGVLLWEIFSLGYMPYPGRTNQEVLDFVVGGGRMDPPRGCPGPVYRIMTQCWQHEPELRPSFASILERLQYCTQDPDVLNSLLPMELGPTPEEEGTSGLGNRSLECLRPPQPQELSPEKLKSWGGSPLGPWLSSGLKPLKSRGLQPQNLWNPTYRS

Turning to `Cc1cccc(-c2nc(N(C)c3ccc4ncsc4c3)c3ccccc3n2)n1` [NK-161], the “KINOMEscan TSSK3” value in assay [1] is listed as 6. Further, the “KINOMEscan EPHB1” value in assay [2] came out at 14. Moreover, in assay [3], the “KINOMEscan LTK” value came to 14. Besides, the “KINOMEscan MAP3K7” value in assay [4] was determined as 10. The “KINOMEscan ULK2” value in assay [5] is 23.
With `Cc1cccc(-c2nc(Nc3ccc4nn(C)cc4c3)c3ccccc3n2)n1` [NK167], the “KINOMEscan TSSK3” value in assay [1] was found to be 0. The “KINOMEscan EPHB1” value in assay [2] turned out to be 0. In addition, the “KINOMEscan LTK” value in assay [3] worked out at 6. Also, the “KINOMEscan MAP3K7” value in assay [4] stood at 0. For the same compound, the “KINOMEscan ULK2” value in assay [5] turned out to be 17.
